Data taken from ChEMBL document CHEMBL1687721, “New drugs against tuberculosis: problems, progress, and evaluation of agents in clinical development” (Antimicrob Agents Chemother, 2009).
≈ marks a conversion by molar mass, not a printed value.

Tests used:
Assay type in all cases: functional
[1] = tested on: Mycobacterium tuberculosis; experiment: Antimicrobial activity against compound-resistant Mycobacterium tuberculosis
[2] = tested on: Mycobacterium tuberculosis; experiment: Antimicrobial activity against multiple drug-resistant Mycobacterium tuberculosis
[3] = tested on: Mycobacterium tuberculosis; experiment: Antimicrobial activity against rifampicin-resistant Mycobacterium tuberculosis

SMILES	MIC [1] [µg/mL]	MIC [2] [µg/mL]	MIC [3] [µg/mL]
C[C@]1(COc2ccc(N3CCC(Oc4ccc(OC(F)(F)F)cc4)CC3)cc2)Cn2cc([N+](=O)[O-])nc2O1	0.006 (≈ 0.0112 µM)		
COc1nc2ccc(Br)cc2cc1[C@@H](c1ccccc1)[C@@](O)(CCN(C)C)c1cccc2ccccc12 [BEDAQUILINE]		0.03 (≈ 0.054 µM)	
COc1c(N2CCNC(C)C2)c(F)cc2c(=O)c(C(=O)O)cn(C3CC3)c12 (stereo unspecified) [GATIFLOXACIN]			0.2 (≈ 0.533 µM)
O=[N+]([O-])c1cn2c(n1)OC[C@@H](OCc1ccc(OC(F)(F)F)cc1)C2 [PRETOMANID]		0.015 (≈ 0.0418 µM)	
CO[C@H]1/C=C/O[C@@]2(C)Oc3c(C)c(O)c4c(O)c(c(/C=N/N5CCN(C6CCCC6)CC5)c(O)c4c3C2=O)NC(=O)/C(C)=C\C=C\[C@H](C)[C@H](O)[C@@H](C)[C@@H](O)[C@@H](C)[C@H](OC(C)=O)[C@@H]1C [RIFAPENTINE]			0.02 (≈ 0.0228 µM)
CC(C)=CCC/C(C)=C/CNCCNC1C2CC3CC(C2)CC1C3 (stereo unspecified) [SQ109]	0.16 (≈ 0.484 µM)		
